Test results published in patent US20160030416A1, “METHODS OF TREATING B2-BRADYKININ RECEPTOR MEDIATED ANGIOEDEMA” (SHIRE HUMAN GENETIC THERAPIES, INC., priority 2013, published 2016).

Test system: BK-induced human umbilical vein contractions
Test: cells
Description: The inhibition effect of CFMQ on bradykinin induced […] was examined in an ex vivo functional assay of human umbilical vein contraction, which is considered a gold standard for bradykinin activity measurements. […] Firazyr®). Following a 30 minute incubation, BK-induced vein contractions were initiated in a cumulative manner (final concentration of 10 μM), followed by maximal calibration contraction induction by 10 μM serotonin. The tension increase for each dose response was calculated in relation to the (maximal) response towards serotonin, graphed as a dose-response curve and used to calculate an effective concentration at 50% (EC50) value (FIG. 6)

EC50: 2.5 nM
SMILES: NC(N)=NCCC[C@@H](N)C(=O)N[C@@H](CCCN=C(N)N)C(=O)N1CCC[C@H]1C(=O)N1C[C@H](O)C[C@H]1C(=O)NCC(=O)N[C@@H](Cc1cccs1)C(=O)N[C@@H](CO)C(=O)N1Cc2ccccc2C[C@@H]1C(=O)N1[C@H](C(=O)N[C@@H](CCCN=C(N)N)C(=O)O)C[C@@H]2CCCC[C@@H]21 [Firazyr® (icatibant), icatibant, reference compound]
